One data set has as its system leucémie P 388. Type of data set: in vivo, souris hybrides CDF1. The settings on record: for Survivants: at day J 40. From the text:
(§1) L'activité antitumorale a été testée in vivo sur différentes tumeurs selon le protocole général suivant : Toutes les souris mâles ou femelles sont inoculées par voie intrapéritonéale au jour Jo avec une quantité déterminée de cellules tumorales viables, variable selon la tumeur.
(§2) Elles sont ensuite réparties en différents lots. Chaque lot correspondant aux animaux traités par le produit à tester à une dose déterminée est composé de lO souris. Dans ce cas, le produit à tester est dissous dans l'eau distillée et il est administré, pendant n jours (J1-Jn) variables selon le protocole choisi, par voie intrapéritonéale à raison de 0,1 ml par lO g de poids des souris traitées, les doses du produit administré étant précisées dans les tableaux ci-dessous.
(§3) Le lot "Contrôle négatif", correspondant aux animaux qui ne sont pas traités par un produit, comprend 2 √N animaux, N étant égal au nombre total de souris traitées par un produit.
(§4) Enfin, tous lés essais sont conduits parallèlement à l'étude d'un lot appelé "Contrôle positif" de 10 animaux qui est traité par une molécule active, variable selon le protocole choisi, dans les mêmes conditions que les lots traités par le produit à tester, afin de valider l'essai.
(§5) L'activité antitumorale est évaluée en considérant l'augmentation du temps de survie des animaux traités par rapport à celui des animaux du lot "Contrôle négatif" selon la formule : • Jour médian de survie des animaux traités à une T/C = dose donnée de produit x 100 • Jour médian de survie des animaux "Contrôle négatif"
(§6) Un composé est considéré comme étant actif lorsque la valeur du rapport T/C est égale ou supérieure à 125 % selon le protocole retenu. Il est toxique lorsque cette valeur est égale ou inférieure à 85 %. Le produit est également considéré comme toxique lorsque la variation pondérale, exprimée en grammes et calculée par la formule : Poids moyen du lot mesuré au jour 5 - poids moyen du même lot au jour 1, est égale ou inférieure à -4g . a) Test de la leucémie P 388 (GERAN et al., Cancer Chemother, 1972, 2, 07-57).
Les essais sont effectués avec des souris hybrides CDF1 inoculées par voie intrapéritonéale avec […] leucémiques de la lignée P 388. Le composé à tester est administré pendant 5 jours (Jl-J5). Le contrôle positif du test est le 5-fluorouracile qui est administré dans les mêmes conditions.
[…] Un composé est considéré comme étant actif lorsque le rapport T/C est supérieur à 127 %.

For a further data set, the system named is mélanome B 16. Nature of the data set: B 16 melanoma test in vivo. Further details: species or system souris hybrides BDF1; Jour médian de survie: unit not given here. The settings on record: for Survivants: at day J 60.
From the text: as §1, §2, §3, §4, §5, §6
c) Test du mélanome B 16 (GERAN et al., Cancer Chemother, 1972, 2, 07-57).
Les essais sont effectués avec des souris hybrides BDF1 inoculées avec O,5 ml d'un homogénat de mélanome B 16 réalisé à partir de 1 g de tumeur dans 10 ml de sérum physiologique. Le composé à tester est administré pendant 9 jours (J1-J9). Le contrôle positif du test est le Cis- platine administré dans les mêmes conditions. Le nombre d'animaux survivants est évalué au jour J 60. Un composé est considéré comme étant actif lorsque le rapport T/C est supérieur ou égal à 125 %.

The subject of data set [1] is lignée tumorale leucémie L 1210. Kind of data set: In vitro cytotoxicity on L 1210 leukemia cell culture. Format: cell-based. The settings on record: concentration inhibiting cell proliferation by 50 p. 100, after 48 h contact, read-out: ID 50 (the source's name). On the procedure:
1) In vitro : (PAOLETTI et al., Chem. Biol. Interaction, 1979, 25, 45-58).
L'activité cytotoxique des composés de l'invention a été évaluée par des essais in vitro. Ces essais consistent à ajouter des concentrations croissantes du composé à tester à une culture cellulaire de la lignée tumorale leucémie L 1210 en phase exponentielle de croissance. Les cellules sont incubées à 37°C dans une étuve à C02 et comptées toutes les 24 heures. Le calcul de l'ID 50 (concentration du produit exprimée en micromole 1^-1 qui inhibe la prolifération cellulaire à 50 p. 100) est effectué après 48 heures de contact. Ainsi déterminées, les ID 50 des composés de l'invention sont rassemblées dans le tableau I ci-après : […]

The nature of the next data set: in vivo. The arrangement: species or system souris. The settings on record: mouse, ip, 100 mg/kg. On the procedure: (§7) Ainsi, l'administration à des souris hybrides CDF1 saines, en une injection unique par la voie intrapéritonéale, de doses croissantes des composés à tester (5 mg, 10 mg, 20 mg, 40 mg/kg) a permis de constater que, à ces doses, les produits étaient parfaitement tolérés puisque le taux de survivants était de 100 p. 100.
(§8) Dans les mêmes conditions, administrés à des souris BDF1 saines, les taux de survivants étaient de 100 p. 100 jusqu'à 100 mg/kg pour les dérivés 1, 3 et 9 et jusqu'à 200 mg/kg pour les dérivés 2 et 8.

A further data set concerns souris BDF1 saines. Kind of data set: in vivo. The settings on record: mouse, ip, 200 mg/kg. As for the experimental part:
as §7, §8

Where two headings read alike, the source gives them in different places.

As to `CCN(CC)CCCNc1ncc(C)c2[nH]c3ccncc3c12` [Dérivé N° 1, [(diéthylamino-3 propyl-1)amino]-1 méthyl-4 5-H pyrido[3',4':4,5]pyrrolo[3,2-c]pyridine], the “Jour médian de survie” value in the data set on leucémie P 388 (5 mg/kg i.p. J1-J5) was 14,1; in the data set with leucémie P 388 (10 mg/kg i.p. J1-J5) it was 14,6; with leucémie P 388 (20 mg/kg i.p. J1-J5), 15,9; in the data set with leucémie P 388 (40 mg/kg i.p. J1-J5), 16,6; in the data set on leucémie P 388 (50 mg/kg i.p. J1-J5), 3,1; with mélanome B 16 (5 mg/kg i.p. J1-J9), 28,25. The “Jour médian de survie” value was 30,0 in the data set on mélanome B 16 (10 mg/kg i.p. J1-J9) and 34,25 in the data set with mélanome B 16 (20 mg/kg i.p. J1-J9). In addition, the T/C % with leucémie P 388 (5 mg/kg i.p. J1-J5) turned out to be 132%; in the data set with leucémie P 388 (10 mg/kg i.p. J1-J5) it was 136%; with leucémie P 388 (20 mg/kg i.p. J1-J5), 148%; with leucémie P 388 (40 mg/kg i.p. J1-J5), 155%; with leucémie P 388 (50 mg/kg i.p. J1-J5), 26%; in the data set on mélanome B 16 (5 mg/kg i.p. J1-J9) it was 119%. In addition, the T/C % was found to be 126% with mélanome B 16 (10 mg/kg i.p. J1-J9) and 144% in the data set on mélanome B 16 (20 mg/kg i.p. J1-J9). In addition, the Survivants is given as 0/10 in the data set on leucémie P 388 (5 mg/kg i.p. J1-J5); 0/10 in the data set with leucémie P 388 (10 mg/kg i.p. J1-J5); 0/10 in the data set with leucémie P 388 (20 mg/kg i.p. J1-J5); 0/10 in the data set with leucémie P 388 (40 mg/kg i.p. J1-J5); 0/10 in the data set with leucémie P 388 (50 mg/kg i.p. J1-J5); 0 in the data set with mélanome B 16 (5 mg/kg i.p. J1-J9). Further, the Survivants in the data set with mélanome B 16 (10 mg/kg i.p. J1-J9) and in the data set with mélanome B 16 (20 mg/kg i.p. J1-J9) was 0 throughout. Further, the IC50 in data set [1] (Mus musculus, L1210) is 340 nM. Also, in the data set “in vivo”, the survival is 100%.
For “diméthyl-4,5[(éthylamino-3 propyl-1)amino]-1 5-H pyrido[3',4':4,5]pyrrolo[3,2-c]pyridine [Dérivé N° 8]”, the “Jour médian de survie” value in the data set on leucémie P 388 (5 mg/kg i.p. J1-J5) is 13,4; in the data set with leucémie P 388 (10 mg/kg i.p. J1-J5), 14,62; in the data set on leucémie P 388 (20 mg/kg i.p. J1-J5), 16,75; with leucémie P 388 (40 mg/kg i.p. J1-J5), 16,0; with leucémie P 388 (80 mg/kg i.p. J1-J5), 17,25. The T/C % came to 116% with leucémie P 388 (5 mg/kg i.p. J1-J5); 127% in the data set on leucémie P 388 (10 mg/kg i.p. J1-J5); 145% with leucémie P 388 (20 mg/kg i.p. J1-J5); 138% in the data set on leucémie P 388 (40 mg/kg i.p. J1-J5); 149% in the data set on leucémie P 388 (80 mg/kg i.p. J1-J5). The Survivants in the data set on leucémie P 388 (5 mg/kg i.p. J1-J5), with leucémie P 388 (10 mg/kg i.p. J1-J5), in the data set with leucémie P 388 (20 mg/kg i.p. J1-J5), in the data set on leucémie P 388 (40 mg/kg i.p. J1-J5) and in the data set on leucémie P 388 (80 mg/kg i.p. J1-J5) was 0 each time. In addition, the IC50 in data set [1] stood at 3800 nM. The taux de survivants with souris BDF1 saines came to 100 p. 100.

The values above are taken from patent publication EP0197829A1, “5H-pyrido[3',4':4,5]pyrrolo[3,2-c]pyridine derivatives, process for their preparation and their antitunour activity” (SANOFI, priority 1985, dated 1986).
